The record followed here is patent US20110201818A1, “POLO-LIKE KINASE INHIBITORS” (TAKEDA PHARMACEUTICAL COMPANY LIMITED, priority 2007, published 2011).

Where only a bound is given, the exact number is not on record here.

For the experiment, the target named is T1, human PLK1 (Homo sapiens, UniProt P53350).
T1 construct: FLAG (DYKDDDDK) (N); made in house; host or cells: Sf21 insect cells, recombinant baculovirus (pFASTBAC1, Bac-to-Bac)
T1 sequence (P53350 with tags, fused parts or gaps): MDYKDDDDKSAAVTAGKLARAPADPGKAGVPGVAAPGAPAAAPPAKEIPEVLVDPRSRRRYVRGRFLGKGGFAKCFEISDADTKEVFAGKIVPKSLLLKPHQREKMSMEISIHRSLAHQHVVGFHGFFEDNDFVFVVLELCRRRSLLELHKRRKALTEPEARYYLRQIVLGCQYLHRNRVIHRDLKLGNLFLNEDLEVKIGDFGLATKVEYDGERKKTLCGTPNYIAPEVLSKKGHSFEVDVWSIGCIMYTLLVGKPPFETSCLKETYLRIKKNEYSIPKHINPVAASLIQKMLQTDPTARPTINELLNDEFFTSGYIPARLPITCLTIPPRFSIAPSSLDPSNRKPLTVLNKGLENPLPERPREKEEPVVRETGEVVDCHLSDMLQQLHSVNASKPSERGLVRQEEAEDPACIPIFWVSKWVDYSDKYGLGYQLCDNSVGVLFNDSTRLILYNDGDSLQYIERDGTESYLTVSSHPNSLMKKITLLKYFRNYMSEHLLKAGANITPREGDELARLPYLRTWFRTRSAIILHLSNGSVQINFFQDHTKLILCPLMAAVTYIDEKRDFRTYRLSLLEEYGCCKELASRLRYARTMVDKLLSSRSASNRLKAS
In words: PLK1 in vitro enzymatic activity assay (phosphorylation of alpha casein by recombinant PLK1). It is filed as biochemical. Particulars: recombinant FLAG-tagged PLK1, alpha casein substrate, 500 nmol/L ATP, 40 min at room temperature; read-out: pIC50 (PLK1) (converted). In a few lines: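 Recombinant PLK1 from baculovirus-infected Sf21 cells (50 ng) phosphorylated 3 μg alpha casein for 40 min at room temperature in HEPES pH 7.5, Mg acetate, DTT buffer with 500 nmol/L ATP plus [γ-32P]ATP. TCA-precipitated phosphoprotein was filter-captured, washed, and counted by scintillation.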
As to `COc1cc(C(=O)NN2CCN(C(=O)CN(C)C)CC2)ccc1Nc1ncc2c(n1)N(C1CCCCC1)CC(F)(F)C(=O)N2C` [Compound 81, 4-(9-cyclohexyl-7,7-difluoro-5-methyl-6-oxo-6,7,8,9-tetrahydro-5H-pyrimido[4,5-b][1,4]diazepin-2-ylamino)-N-(4-(2-(dimethylamino)acetyl)piperazin-1-yl)-3-methoxybenzamide], the IC50 is not above 2 nM.
In the case of `COc1cc(C(=O)NC2CCN(C)CC2)ccc1Nc1ncc2c(n1)N(C1CC[C@@H](C)C1)CC(F)(F)C(=O)N2C` (stereo partly drawn) [Compound 83, 4-(7,7-difluoro-5-methyl-9-((3R)-3-methylcyclopentyl)-6-oxo-6,7,8,9-tetrahydro-5H-pyrimido[4,5-b][1,4]diazepin-2-ylamino)-3-methoxy-N-(1-methylpiperidin-4-yl)benzamide] it was not above 2 nM; in that of `COc1cc(C(=O)NC2CCN(C)CC2)ccc1Nc1ncc2c(n1)N(C1CCCC1)CC(F)C(=O)N2C` (stereo not shown) [Compound 84, 4-(9-cyclopentyl-7-fluoro-5-methyl-6-oxo-6,7,8,9-tetrahydro-5H-pyrimido[4,5-b][1,4]diazepin-2-ylamino)-3-methoxy-N-(1-methylpiperidin-4-yl)benzamide], not above 2 nM.
In the case of `COc1cc(C(=O)NC2CCN(C)CC2)ccc1Nc1ncc2c(n1)N(C1CCCC1)CC(F)(C(F)(F)F)C(=O)N2C` (stereo not shown) [Compound 85, 4-(9-cyclopentyl-7-fluoro-5-methyl-6-oxo-7-(trifluoromethyl)-6,7,8,9-tetrahydro-5H-pyrimido[4,5-b][1,4]diazepin-2-ylamino)-3-methoxy-N-(1-methylpiperidin-4-yl)benzamide] it was more than 2 nM; in that of `COc1cc(C(=O)NC2CCN(C)CC2)ccc1Nc1ncc2c(n1)N(C1CCCC1)CC(C)(F)C(=O)N2C` (stereo not shown) [Compound 87, 4-(9-cyclopentyl-7-fluoro-5,7-dimethyl-6-oxo-6,7,8,9-tetrahydro-5H-pyrimido[4,5-b][1,4]diazepin-2-ylamino)-3-methoxy-N-(1-methylpiperidin-4-yl)benzamide], not above 2 nM; in that of `COc1cc(C(=O)NC2CN(C)C2)ccc1Nc1ncc2c(n1)N(C1CCCC1)CC(C)(F)C(=O)N2C` (stereo not shown) [Compound 88, 4-(9-Cyclopentyl-7-fluoro-5,7-dimethyl-6-oxo-6,7,8,9-tetrahydro-5H-pyrimido[4,5-b][1,4]diazepin-2-ylamino)-3-methoxy-N-(1-methylazetidin-3-yl)benzamide], not above 2 nM.
On to `COc1cc(C(=O)NC2CCN(C)CC2)ccc1Nc1ncc2c(n1)N(C1CCCCC1)CC(C)(F)C(=O)N2C` (stereo not shown) [Compound 89, 4-(9-Cyclohexyl-7-fluoro-5,7-dimethyl-6-oxo-6,7,8,9-tetrahydro-5H-pyrimido[4,5-b][1,4]diazepin-2-ylamino)-3-methoxy-N-(1-methylpiperidin-4-yl)benzamide], for which the IC50 is not above 2 nM.
`COc1cc(C(=O)NC2CN(C)C2)ccc1Nc1ncc2c(n1)N(C1CCCCC1)CC(C)(F)C(=O)N2C` (stereo not shown) [Compound 90, 4-(9-Cyclohexyl-7-fluoro-5,7-dimethyl-6-oxo-6,7,8,9-tetrahydro-5H-pyrimido[4,5-b][1,4]diazepin-2-ylamino)-3-methoxy-N-(1-methylazetidin-3-yl)benzamide]: the IC50 was not above 2 nM.
Consider `CCC1(F)CN(C2CCCC2)c2nc(Nc3ccc(C(=O)NC4CN(C)C4)cc3OC)ncc2N(C)C1=O` (stereo not shown) [Compound 95, 4-(9-Cyclopentyl-7-ethyl-7-fluoro-5-methyl-6-oxo-6,7,8,9-tetrahydro-5H-pyrimido[4,5-b][1,4]diazepin-2-ylamino)-3-methoxy-N-(1-methylazetidin-3-yl)benzamide], for which the IC50 is not above 2 nM.
In the case of `CCC1(F)CN(C2CCCCC2)c2nc(Nc3ccc(C(=O)NC4CCN(C)CC4)cc3OC)ncc2N(C)C1=O` (stereo not shown) [Compound 96, 4-(9-Cyclohexyl-7-ethyl-7-fluoro-5-methyl-6-oxo-6,7,8,9-tetrahydro-5H-pyrimido[4,5-b][1,4]diazepin-2-ylamino)-3-methoxy-N-(1-methylpiperidin-4-yl)benzamide], the IC50 was more than 2 nM.
